The test system of data set [1] is mouse livers.
The subject of data set [2] is APAP-induced liver injury (AILI). To be noted: cited from earlier work.
Data set [3] addresses T1, TFEB (Homo sapiens, UniProt P19484).
T1 sequence (P19484 1-476): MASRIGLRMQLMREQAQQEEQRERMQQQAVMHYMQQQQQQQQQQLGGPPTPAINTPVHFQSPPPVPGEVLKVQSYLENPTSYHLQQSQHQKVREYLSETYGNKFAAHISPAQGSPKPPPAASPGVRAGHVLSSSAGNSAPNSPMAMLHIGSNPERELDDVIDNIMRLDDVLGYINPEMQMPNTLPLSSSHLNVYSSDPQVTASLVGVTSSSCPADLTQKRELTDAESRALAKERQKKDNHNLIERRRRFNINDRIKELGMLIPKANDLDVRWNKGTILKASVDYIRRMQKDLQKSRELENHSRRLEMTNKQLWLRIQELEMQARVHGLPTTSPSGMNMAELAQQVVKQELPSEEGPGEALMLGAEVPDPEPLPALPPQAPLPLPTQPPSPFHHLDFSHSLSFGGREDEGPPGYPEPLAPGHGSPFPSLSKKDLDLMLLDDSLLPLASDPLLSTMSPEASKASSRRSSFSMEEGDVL
Briefly: GFP-TFEB nuclear translocation assay in qHTS format. It is filed as cell-based, mouse.

Data set [4] has as its system TFEB. Briefly: qPCR of TFEB target genes in AML12 cells. It is filed as cell-based, mouse. To be noted: qPCR normalized to 18s. On the technique in general: In qPCR the cycle at which signal appears reflects the starting amount.
The target in data set [5] is T1, TFEB. Briefly: GFP-TFEB nuclear translocation validation by confocal microscopy in AML12 cells. The class given is cell-based, mouse. To be noted: stably expressing pEGFP-N1-TFEB AML12 cells, 24 h, vs control.
Data set [6] concerns TFEB. Briefly: TFEB promoter-driven luciferase reporter assay in AML12 cells. It is filed as cell-based, mouse. Particulars: AML12 cells transfected with pGL3-TFEB-Luc, 24 h treatment. (In general: In a reporter assay the amount or activity of a reporter protein is the signal.)
For data set [7], the system named is APAP-induced liver injury (AILI). Briefly: Protection against APAP overdose-induced liver injury in mice. It is filed as in vivo, mouse.
The mark [8] stands for this setting: salinomycin 5 mg/kg i.p. with APAP 500 mg/kg i.p., 6 and 24 h.

Molecules are shown by their SMILES.

Take `CC(=O)Nc1ccc(O)cc1` [APAP, Acetaminophen]: the “levels of hepatic GSH” value in data set [1] (APAP 0.5, 2 and 6 h, recovered at 24 h) is reported as “significantly decreased”. Also, in data set [1] (APAP 500 mg/kg i.p., 6 or 24 h, vs saline), the “serum alanine aminotransferase (ALT) levels” value is recorded as “significantly increased”. In data set [1] (APAP 500 mg/kg, 6 h, vs saline), the “mRNA levels of TFEB targeted genes in liver” value is reported as “significantly lower”. Further, the “levels of hepatic CYP2E1” value in data set [1] (APAP-treated WT mouse livers vs saline-treated WT) is about 2 fold.

`C[C@@H]1O[C@@H](OC[C@H]2O[C@@H](Oc3cc(O)c4c(c3)O[C@H](c3ccc(O)cc3)CC4=O)[C@H](O)[C@@H](O)[C@@H]2O)[C@H](O)[C@H](O)[C@H]1O` [Narirutin]: in data set [2] (mice, by activating TFEB via enhanced calcineurin activity), the “hepatic APAP-adducts and AILI” value is “decrease”.

What is called EC50 is the concentration needed to bring the measured effect to its halfway point. On to `CC[C@@H](C(=O)[C@@H](C)[C@@H](O)[C@H](C)[C@@H]1O[C@@H]([C@@H](CC)C(=O)O)CC[C@@H]1C)[C@H]1O[C@]2(C=C[C@@H](O)[C@]3(CC[C@@](C)([C@H]4CC[C@](O)(CC)[C@H](C)O4)O3)O2)[C@H](C)C[C@@H]1C` [Salinomycin], for which the midpoint of the response in data set [3], the EC50, lay at 2.64 µM. Moreover, in data set [4], the “mRNA levels of TFEB target genes (Tfeb, Sqstm1, Ppargc1a, Lamp1, Vatp6v1d, Vatp6v1h, Pparα)” value is “increased”. Besides, in data set [5], the “nuclear translocation of TFEB” value is recorded as “significantly increased”. Besides, the “TFEB promoter driven luciferase activity” value in data set [6] is on record as “significantly increased”. In addition, the “hepatic levels of APAP-protein adducts” value in data set [7] (APAP-treated mice with or without salinomycin) is “similar”. The “serum levels of APAP-adducts” value in data set [7] (APAP-treated mice with salinomycin) is “markedly decreased”. In data set [7] (immunoblotting, salinomycin 5 mg/kg i.p.), the “hepatic protein levels of CYP2E1” value was “did not change”. Moreover, the “hepatic TFEB levels” value in data set [7] (immunoblotting, salinomycin with APAP vs APAP) is listed as “partially recovered”. Besides, in data set [7] (liver, co-treatment of salinomycin after APAP overdose), the “levels of phosphorylated JNK” value is on record as “reduced”. In data set [7] (salinomycin 5 mg/kg i.p. with APAP 500 mg/kg i.p.), the “areas of centrilobular necrosis (H&E and TUNEL staining)” value is on record as “almost completely abolished”. Further, in data set [7] (setting [8]), the “serum ALT levels” value is given as “markedly decreased” and the “serum AST levels” value was “markedly decreased”.

As to `CCN(CC)CCNC(=O)c1c(C)[nH]c(/C=C2\C(=O)Nc3ccc(F)cc32)c1C` [Sunitinib], the “effect on AILI at high dose” value in data set [2] (high dose) was “increases AILI”. For the same compound, the “effect on AILI at low dose” value in data set [2] (low dose) was “mild hepatoprotective effect”.

Take `CCC(=O)N1CCN(c2ccc(-n3c(=O)ccc4cnc5ccc(-c6cnc7ccccc7c6)cc5c43)cc2C(F)(F)F)CC1` [Torin1, Torin 1]: the “nuclear translocation of TFEB” value in data set [5] is “significantly increased”.

(Values after paper PMC10793101 (Acta Pharmaceutica Sinica. B, 2023).)
